Patent publication US8883771B2, “Bivalent inhibitors of IAP proteins and therapeutic methods using the same” (The Regents of the University of Michigan, priority 2012, dated 2014)
Like-named read-outs stand apart in the source and are kept apart here.

Assays:
[1] = system: MDA-MB-231 breast cancer cell line; assay: Inhibition of cell growth in MDA-MB-231 breast cancer cell line; assay type: cell-based, human
[2] = target: XIAP linker-BIR2-BIR3 (residues 120-356) (Homo sapiens (Human), UniProt P98170); assay: Fluorescence polarization (FP) based competitive binding assay, XIAP linker-BIR2-BIR3; settings: read-out: Binding Affinities IC50 (nM) XIAP Protein
Experimental: (§1) For cIAP-1 BIR3 and cIAP-2 BIR3 assays, a fluorescently labeled Smac mimetic (Smac-2F) was used as the fluorescent probe. The Kd values of Smac-2F to cIAP-1 BIR3 and cIAP-2 BIR3 were determined by monitoring the total fluorescence polarization of mixtures composed with the fluorescent probe at a fixed concentration and proteins with increasing concentrations up to full saturation. Fluorescence polarization values were measured using the Infinite M-1000 plate reader (Tecan U.S., Research Triangle Park, N.C.) in Microfluor 2 96-well, black, round-bottom plates (Thermo Scientific). To each well, 1 nM of SMAC-2F and increasing concentrations of protein were added to a final volume of 125 μl in the assay buffer (100 mM potassium phosphate, pH 7.5, 100 μg/ml bovine γ-globulin, 0.02% sodium azide, Invitrogen, with 4% DMSO). Plates were incubated at room temperature for 1-2 hours and mixed with gentle shaking to assure equilibrium. […] Equilibrium dissociation constants (Kd) were then calculated by fitting the sigmoidal dose-dependent FP increases as a function of protein concentrations using Graphpad Prism 5.0 software (Graphpad Software, San Diego, Calif.).
(§2) Mixtures of 5 μl of the tested compounds in DMSO and 120 μl of preincubated protein/tracer complex in the assay buffer (100 mM potassium phosphate, pH 7.5, 100 μg/ml bovine γ-globulin, 0.02% sodium azide, Invitrogen) were added into assay plates and incubated at room temperature for 2 hours with gentle shaking. Final concentrations of proteins and probes were 3 nM and 1 nM, 5 nM and 1 nM for assays for cIAP-1 BIR3 and cIAP-2 BIR3, respectively. […] FP values were measured as described above. IC50 values were determined by nonlinear regression fitting of the competition curves. The Ki values of competitive inhibitors were calculated using the derived equation described previously, based upon the measured IC50 values, the Kd values of the probe to different proteins, and the concentrations of the proteins and probes in the competitive assays.
The FP-based assay for XIAP linker-BIR2-BIR3 protein was performed with the same procedures. In this assay, a bivalent fluorescently tagged peptidic Smac mimetic (Smac-1F) was used as the fluorescent probe whose Kd value to XIAP linker-BIR2-BIR3 was determined similarly through the saturation experiments. 0.01% of Triton X-100 was added in the assay buffer to achieve stable fluorescence and polarization value of the dimeric fluorescent probe. Final protein and probe concentrations utilized in the competitive assay were 3 nM and 1 nM, respectively.

[3] = target: cIAP1-BIR3 (residues 253-363) (Homo sapiens (Human), UniProt Q13490); assay: Fluorescence polarization (FP) based competitive binding assay, cIAP1-BIR3; settings: Smac-2F probe, read-out: Binding Affinities IC50 (nM) cIAP1 Protein
Experimental: as §1, §2

[4] = target: cIAP-2 BIR3 (residues 238-349) (Homo sapiens (Human), UniProt Q13489); assay: Fluorescence polarization (FP) based competitive binding assay, cIAP-2 BIR3; settings: read-out: Binding Affinities IC50 (nM) cIAP2 Protein
Experimental: as §1, §2

[5] = system: SK-OV-3 ovarian cancer cell line; assay: Inhibition of cell growth in SK-OV-3 ovarian cancer cell line; assay type: cell-based, human
[6] = Homo sapiens, MDA-MB-231, MDA-MB-231 breast cancer cell line
[7] = FP competitive assay, Smac-2F probe
[8] = Homo sapiens, SK-OV-3, SK-OV-3 ovarian cancer cell line
[9] = Homo sapiens, MDA-MB-231 breast cancer cell line
[10] = Homo sapiens, SK-OV-3 ovarian cancer cell line
[11] = MDA-MB-231 breast cancer cell line
[12] = SK-OV-3 ovarian cancer cell line

Structure (SMILES): CN[C@@H](C)C(=O)N[C@H]1CN(C(=S)Nc2ccc(Cc3ccc(NC(=S)N4CC[C@H]5CC[C@@H](C(=O)NC(c6ccccc6)c6ccccc6)N5C(=O)[C@@H](NC(=O)[C@H](C)NC)C4)cc3)cc2)CC[C@H]2CCC(C(=O)NC(c3ccccc3)c3ccccc3)N2C1=O (stereo partly shown) [Example 18]
- IC50 [1, 6]: < 100 nM

Structure (SMILES): CN[C@@H](C)C(=O)N[C@H]1CN(C(=O)NCCCCCCNC(=O)N2CC[C@H]3CC[C@@H](C(=O)N[C@H]4CCC[C@@H]4c4ccccc4)N3C(=O)[C@@H](NC(=O)[C@H](C)NC)C2)CC[C@H]2CCC(C(=O)N[C@H]3CCC[C@@H]3c3ccccc3)N2C1=O (stereo in doubt) [Example 42]
- IC50 ([2]; FP competitive assay, Smac-1F probe): < 1000 nM
- IC50 [3]: < 1000 nM
- IC50 [4, 7]: < 3000 nM
- IC50 [1, 6]: < 1000 nM
- IC50 [5, 8]: < 1000 nM

Structure (SMILES): CN[C@@H](C)C(=O)N[C@H]1CN(C(=S)Nc2ccc(NC(=S)N3CC[C@H]4CC[C@@H](C(=O)NC(c5ccccc5)c5ccccc5)N4C(=O)[C@@H](NC(=O)[C@H](C)NC)C3)cc2)CC[C@H]2CCC(C(=O)NC(c3ccccc3)c3ccccc3)N2C1=O (stereo partly shown) [Example 16]
- IC50 [1, 6]: < 100 nM

Structure (SMILES): CNCC(=O)N[C@H]1CN(C(=O)N2CCN(C(=O)N3CC[C@H]4CC[C@@H](C(=O)NC(c5ccccc5)c5ccccc5)N4C(=O)[C@@H](NC(=O)[C@H](C)NC)C3)CC2)CC[C@H]2CCC(C(=O)NC(c3ccccc3)c3ccccc3)N2C1=O (stereo partly shown) [Example 20]
- IC50 [1, 6]: < 10000 nM
- IC50 [5, 8]: < 10000 nM

Structure (SMILES): CN[C@@H](C)C(=O)N[C@H]1CN(C(=O)NCCCCCCNC(=O)N2CC[C@H]3CC[C@@H](C(=O)NCCc4ccccc4)N3C(=O)[C@@H](NC(=O)[C@H](C)NC)C2)CC[C@H]2CCC(C(=O)NCCc3ccccc3)N2C1=O (stereo partly shown) [Example 46]
- IC50 [1, 6]: < 1000 nM
- IC50 [5, 8]: < 1000 nM

Structure (SMILES): CN[C@@H](C)C(=O)N[C@H]1CN(C(=O)Nc2ccc(CCc3ccc(NC(=O)N4CC[C@H]5CC[C@@H](C(=O)NC(c6ccccc6)c6ccccc6)N5C(=O)[C@@H](NC(=O)[C@H](C)NC)C4)cc3)cc2)CC[C@H]2CCC(C(=O)NC(c3ccccc3)c3ccccc3)N2C1=O (stereo partly shown) [Example 17]
- IC50 [1, 6]: < 100 nM

Structure (SMILES): CN[C@@H](C)C(=O)N[C@H]1CN(C(=O)Nc2ccc(-c3ccc(NC(=O)N4CC[C@H]5CC[C@@H](C(=O)NC(c6ccccc6)c6ccccc6)N5C(=O)[C@@H](NC(=O)[C@H](C)NC)C4)c(C)c3)cc2C)CC[C@H]2CCC(C(=O)NC(c3ccccc3)c3ccccc3)N2C1=O (stereo partly shown) [Example 15]
- IC50 [1, 6]: < 1000 nM
- IC50 [5, 8]: < 1000 nM

Structure (SMILES): CN[C@@H](C)C(=O)N[C@H]1CN(C(=O)Nc2ccc(NC(=O)N3CC[C@H]4CC[C@@H](C(=O)N[C@H]5C[C@@H]5c5ccccc5F)N4C(=O)[C@@H](NC(=O)[C@H](C)NC)C3)cc2)CC[C@H]2CC[C@@H](C(=O)N[C@H]3C[C@@H]3c3ccccc3F)N2C1=O [Example 27]
- IC50 [1, 6]: < 5000 nM
- IC50 [5, 8]: < 5000 nM

Structure (SMILES): CN[C@@H](C)C(=O)N[C@H]1CN(C(=O)NCCCCCCNC(=O)N2CC[C@H]3CC[C@@H](C(=O)N[C@H]4CC[C@@H]4c4ccccc4)N3C(=O)[C@@H](NC(=O)[C@H](C)NC)C2)CC[C@H]2CCC(C(=O)N[C@H]3CC[C@@H]3c3ccccc3)N2C1=O (stereo partly shown) [Example 47]
- IC50 [1, 9]: < 1000 nM
- IC50 [5, 10]: < 1000 nM

Structure (SMILES): CN[C@@H](C)C(=O)N[C@H]1CN(C(=O)NCCCCCCNC(=O)N2CC[C@H]3CC[C@@H](C(=O)N[C@H]4C[C@H](c5ccccc5)C4)N3C(=O)[C@@H](NC(=O)[C@H](C)NC)C2)CC[C@H]2CCC(C(=O)N[C@H]3C[C@H](c4ccccc4)C3)N2C1=O (stereo partly shown) [Example 48]
- IC50 [1, 9]: < 10000 nM
- IC50 [5, 10]: < 10000 nM

Structure (SMILES): CN[C@@H](C)C(=O)N[C@H]1CN(C(=O)Nc2ccc(NC(=O)N3CC[C@H]4CC[C@@H](C(=O)N[C@H]5C[C@@H]5c5ccccc5)N4C(=O)[C@@H](NC(=O)[C@H](C)NC)C3)cc2)CC[C@H]2CC[C@@H](C(=O)N[C@H]3C[C@@H]3c3ccccc3)N2C1=O [Example 31]
- IC50 [1, 6]: < 1000 nM
- IC50 [5, 8]: < 1000 nM

Structure (SMILES): CN[C@@H](C)C(=O)N[C@H]1CN(C(=O)NCCCCCCNC(=O)N2CC[C@H]3CC[C@@H](C(=O)N[C@H]4CCCC[C@@H]4c4ccccc4)N3C(=O)[C@@H](NC(=O)[C@H](C)NC)C2)CC[C@H]2CCC(C(=O)N[C@H]3CCCC[C@@H]3c3ccccc3)N2C1=O (stereo partly shown) [Example 39]
- IC50 [1, 11]: < 1000 nM
- IC50 [5, 12]: < 1000 nM

Structure (SMILES): CN[C@@H](C)C(=O)N[C@H]1CN(C(=O)NCCCCCCNC(=O)N2CC[C@H]3CC[C@@H](C(=O)NC4Cc5ccccc5C4)N3C(=O)[C@@H](NC(=O)[C@H](C)NC)C2)CC[C@H]2CCC(C(=O)NC3Cc4ccccc4C3)N2C1=O (stereo partly shown) [Example 45]
- IC50 [1, 6]: < 1000 nM
- IC50 [5, 8]: < 1000 nM

Structure (SMILES): CN[C@@H](C)C(=O)N[C@H]1CN(S(=O)(=O)c2cccc(S(=O)(=O)N3CC[C@H]4CC[C@@H](C(=O)NC(c5ccccc5)c5ccccc5)N4C(=O)[C@@H](NC(=O)[C@H](C)NC)C3)c2)CC[C@H]2CCC(C(=O)NC(c3ccccc3)c3ccccc3)N2C1=O (stereo partly shown) [Example 23]
- IC50 [1, 6]: < 100 nM
- IC50 [5, 8]: < 100 nM

Structure (SMILES): CN[C@@H](C)C(=O)N[C@H]1CN(C(=O)Nc2ccc(NC(=O)N3CC[C@H]4CC[C@@H](C(=O)N[C@H]5C[C@@H]5c5ccc(C(F)(F)F)cc5)N4C(=O)[C@@H](NC(=O)[C@H](C)NC)C3)cc2)CC[C@H]2CC[C@@H](C(=O)N[C@H]3C[C@@H]3c3ccc(C(F)(F)F)cc3)N2C1=O [Example 35]
- IC50 [1, 6]: < 10000 nM
- IC50 [5, 8]: < 10000 nM

Structure (SMILES): CN[C@@H](C)C(=O)N[C@H]1CN(C(=O)Nc2ccc(NC(=O)N3CC[C@H]4CC[C@@H](C(=O)N[C@@H]5C[C@H]5c5ccccc5)N4C(=O)[C@@H](NC(=O)[C@H](C)NC)C3)cc2)CC[C@H]2CC[C@@H](C(=O)N[C@@H]3C[C@H]3c3ccccc3)N2C1=O [Example 30]
- IC50 [1, 6]: < 10000 nM
- IC50 [5, 8]: < 10000 nM

Structure (SMILES): CN[C@@H](C)C(=O)N[C@H]1CN(C(=O)Nc2ccc(NC(=O)N3CC[C@H]4CC[C@@H](C(=O)N[C@@H]5C[C@@H]5c5ccccc5)N4C(=O)[C@@H](NC(=O)[C@H](C)NC)C3)cc2)CC[C@H]2CC[C@@H](C(=O)N[C@@H]3C[C@@H]3c3ccccc3)N2C1=O (stereo in doubt) [Example 26]
- IC50 [1, 11]: < 1000 nM
- IC50 [5, 12]: < 1000 nM

Structure (SMILES): CN[C@@H](C)C(=O)N[C@H]1CN(C(=O)Oc2ccc(C(C)(C)c3ccc(OC(=O)N4CC[C@H]5CC[C@@H](C(=O)NC(c6ccccc6)c6ccccc6)N5C(=O)[C@@H](NC(=O)[C@H](C)NC)C4)cc3)cc2)CC[C@H]2CCC(C(=O)NC(c3ccccc3)c3ccccc3)N2C1=O (stereo partly shown) [Example 22]
- IC50 [1, 6]: < 100 nM
- IC50 [5, 8]: < 1000 nM

Structure (SMILES): CN[C@@H](C)C(=O)N[C@H]1CN(C(=O)NCc2cccc(CNC(=O)N3CC[C@H]4CC[C@@H](C(=O)N[C@H]5C[C@@H]5c5ccccc5)N4C(=O)[C@@H](NC(=O)[C@H](C)NC)C3)c2)CC[C@H]2CCC(C(=O)N[C@H]3C[C@@H]3c3ccccc3)N2C1=O (stereo partly shown) [Example 38]
- IC50 [1, 6]: < 10000 nM
- IC50 [5, 8]: < 10000 nM

Structure (SMILES): CN[C@@H](C)C(=O)N[C@H]1CN(C(=O)NCCCCCCNC(=O)N2CC[C@H]3CC[C@@H](C(=O)N[C@H]4C[C@H](c5ccccc5)C4)N3C(=O)[C@@H](NC(=O)[C@H](C)NC)C2)CC[C@H]2CCC(C(=O)N[C@H]3C[C@H](c4ccccc4)C3)N2C1=O (stereo partly shown) [Example 49]
- IC50 [2]: < 1000 nM
- IC50 [3]: < 1000 nM
- IC50 [4, 7]: < 5000 nM

Structure (SMILES): CN[C@@H](C)C(=O)N[C@H]1CN(C(=O)NCCCCCCNC(=O)N2CC[C@H]3CC[C@@H](C(=O)N[C@H]4C[C@@H](c5ccccc5)C4)N3C(=O)[C@@H](NC(=O)[C@H](C)NC)C2)CC[C@H]2CCC(C(=O)N[C@H]3C[C@@H](c4ccccc4)C3)N2C1=O (stereo partly shown) [Example 50]
- IC50 [2]: < 1000 nM
- IC50 [3]: < 1000 nM
- IC50 [4]: < 1000 nM

Structure (SMILES): CN[C@@H](C)C(=O)N[C@H]1CN(C(=O)Nc2ccc(NC(=O)N3CC[C@H]4CC[C@@H](C(=O)N[C@@H]5C[C@@H]5c5ccccc5)N4C(=O)[C@@H](NC(=O)[C@H](C)NC)C3)cc2)CC[C@H]2CC[C@@H](C(=O)N[C@@H]3C[C@@H]3c3ccccc3)N2C1=O [Example 25]
- IC50 [1, 6]: < 1000 nM
- IC50 [5, 8]: < 1000 nM
